Some results are limits rather than exact numbers.

For nine molecules, EC50 results are on record in BindingDB's records for patent US11912693 (Trevena, 2024).

Assay [1] concerns the target T1, Sphingosine 1-phosphate receptor 1 (Homo sapiens, UniProt P21453). In words: Beta-Arrestin2 Recruitment Assay. How it is done:
Agonist-promoted β-arrestin2 recruitment to the sphingosine-1-phosphate 1 receptor was determined using the β-arrestin PathHunter ) Detection kit (DiscoverX Corporation, Cat #: 93-0001). […] In cells that stably express these fusion proteins, stimulation with a cognate agonist results in the interaction of 0-arrestin2 and the Prolink -tagged GPCR. This allows the complementation of the two β-galactosidase fragments and results in the formation of a functional enzyme with β-galactosidase activity. […] Following a 60 minute incubation at 37 C. and 5% CO2 in a humidified CO2 and temperature-controlled incubator, the components of the β-arrestin PathHunter Detection kit were added as per the manufacturer's instructions. After an hour incubation at room temperature, plates were analyzed by a BMG PheraStar microplate reader.
For orientation: Arrestin recruitment assays detect the binding of arrestin to an activated receptor.

Assay [2] concerns the target T1, Sphingosine 1-phosphate receptor 1. In words: Detecting Inhibition of cAMP Production. The method, then:
Agonist-promoted G-protein responses were determined by measuring changes in intracellular cAMP using the HTRF cAMP HiRange kit (CisBio, Cat #: 62AM6PEJ) based on time-resolved fluorescence resonance energy transfer (TR-FRET) technology. […] Following a 30-minute incubation at 37 C. and 5% CO2 in a humidified CO2 and temperature-controlled incubator, the components of the cAMP HiRange kit were added as per the manufacturer's instructions. After an hour incubation at room temperature, plates were analyzed by a BMG PheraStar microplate reader.

T1 sequence (P21453 whole entry, the tested form may be a part): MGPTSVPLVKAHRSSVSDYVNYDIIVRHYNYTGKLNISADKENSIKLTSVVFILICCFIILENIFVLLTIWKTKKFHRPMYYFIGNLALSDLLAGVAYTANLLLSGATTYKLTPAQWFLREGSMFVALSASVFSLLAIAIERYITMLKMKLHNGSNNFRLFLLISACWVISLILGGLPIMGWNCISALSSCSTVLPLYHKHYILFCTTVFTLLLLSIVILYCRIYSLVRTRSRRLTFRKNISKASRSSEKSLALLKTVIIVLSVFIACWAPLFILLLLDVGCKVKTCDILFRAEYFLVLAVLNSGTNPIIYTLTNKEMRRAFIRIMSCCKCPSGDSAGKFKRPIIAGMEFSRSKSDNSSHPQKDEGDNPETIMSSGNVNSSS

As usually defined, the EC50 is the concentration giving half of the maximal effect. A low value points to a more potent agent. With `Cc1cc(-c2noc(-c3ccc4c(c3)nnn4C3CCCC3)n2)ccn1` [US11912693, Compound 77], the EC50 in assay [1] was above 10 µM; in assay [2] it was above 316 nM.

For the molecule `CC(C)n1nnc2cc(-c3nc(-c4ccccc4Cl)co3)ccc21` [US11912693, Compound 163], the EC50 in assay [1] is below 10 µM; in assay [2] it was below 316 nM.

As for `CC(C)N1NNc2cc(-c3nc(-c4sccc4Cl)co3)ccc21` [US11912693, Compound 463], the figures for the EC50 in assay [1] and in assay [2] were below 10 µM and below 316 nM, respectively.

As to `Cc1cc(-c2noc(-c3ccc4c(c3)NNN4C(C)C)n2)c(C)o1` [US11912693, Compound 490], the EC50 in assay [1] is below 10 µM; in assay [2] it was below 316 nM.

Turning to `Cc1occc1-c1noc(-c2ccc3c(c2)NNN3C(C)C)n1` [US11912693, Compound 491], the results for the EC50 in assay [1] and in assay [2] were below 10 µM and below 316 nM, respectively.

Turning to `Cc1cc(-c2noc(-c3ccc4c(c3)NNN4CC(C)(C)O)n2)c(C)o1` [US11912693, Compound 493], the EC50 is above 10 µM in assay [1] and above 316 nM in assay [2].

On to `CC(C)N1NNc2cc(-c3nc(-c4cccnc4Cl)no3)ccc21` [US11912693, Compound 499], for which the EC50 in assay [1] was below 10 µM; in assay [2], below 316 nM.

For `Cc1ccccc1-c1nc(-c2ccc3c(c2)NNN3CC(C)(C)O)no1` [US11912693, Compound 593], the values for the EC50 in assay [1] and in assay [2] were below 10 µM and below 316 nM, respectively.

Turning to `CC(C)N1NNc2cc(-c3nc(-c4cn[nH]c4)no3)ccc21` [US11912693, Compound 646], the EC50 is above 10 µM in assay [1] and above 316 nM in assay [2].
